Results published in PubChem BioAssay (NCI).
Where “and” joins values, the source holds several entries; their conditions need not be identical. Equal entries are not always repeated.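 Each compound was tested at five concentrations against cells in 96-well plates for 48 hours. Abbreviation: GI50, concentration required for 50% inhibition of growth. TGI: total growth inhibition.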

Experiments:
Assay in all cases: NCI tumour cell line growth inhibition, 48 h
XF 498 CNS = system: XF 498 CNS
KM20L2 colon = system: KM20L2 colon
DMS 114 small cell lung = system: DMS 114 small cell lung
HCT-15 colon = system: HCT-15 colon
DMS 273 small cell lung = system: DMS 273 small cell lung
RXF-631 renal = system: RXF-631 renal
M19-MEL melanoma = system: M19-MEL melanoma
UACC-257 melanoma = system: UACC-257 melanoma
SN12C renal = system: SN12C renal
LXFL 529 NSCLC = system: LXFL 529 NSCLC
DLD-1 colon = system: DLD-1 colon
SNB-78 CNS = system: SNB-78 CNS
HOP-18 NSCLC = system: HOP-18 NSCLC

Structure (SMILES) | TGI (XF 498 CNS) | TGI (KM20L2 colon) | TGI (DMS 114 small cell lung) | TGI (HCT-15 colon) | TGI (DMS 273 small cell lung) | TGI (RXF-631 renal) [µM] | TGI (M19-MEL melanoma) | TGI (UACC-257 melanoma) | TGI (SN12C renal) | TGI (LXFL 529 NSCLC) | GI50 (XF 498 CNS) | TGI (DLD-1 colon) | GI50 (DMS 114 small cell lung) | TGI (SNB-78 CNS) | TGI (HOP-18 NSCLC)
C=CCN(N=O)C(=O)N(CCCC(NC(C)=O)C(=O)NCc1ccccc1)Cc1ccccc1 (stereo not drawn) | > 100 µM | > 100 µM | > 100 µM | > 100 µM | > 100 µM | > 100 | > 100 µM | > 100 µM | > 100 µM | > 100 µM |  |  |  |  | 
COc1cc(C2c3cc4c(cc3[C@@H](NCCN3CCCCC3)C3COC(=O)[C@H]23)OCO4)cc(OC)c1O (stereo partly drawn) | 4.01 µM and 4.2 µM | 8.14 µM and 11.5 µM | 10.9 µM and 16 µM | 2.26 µM and 2.15 µM | 1.27 µM and 1.44 µM |  | 5.4 µM and 4.14 µM | 41.4 µM and 85 µM | 5.81 µM and 5.85 µM | 14.5 µM and 15.2 µM | 0.585 µM and 1.27 µM | 6.78 µM and 10.2 µM | 0.51 µM and 1.64 µM | 8.09 µM and 23.3 µM | 3.73 µM and 29.4 µM
COc1c(OC)c(N)c2cc(C)c(=O)c(C)cc2c1N | > 100 µM | > 100 µM | > 100 µM | > 100 µM | > 100 µM |  | > 100 µM | > 100 µM | > 100 µM | > 100 µM |  | > 100 µM |  | > 100 µM | > 100 µM
CCC(CC)n1cc(C(=O)NC(=O)NCCCCCOC(=O)CCCCCCCCCCC(=O)OCCCCCNC(=O)NC(=O)c2cn(C(CC)CC)c(=O)[nH]c2=O)c(=O)[nH]c1=O | > 100 µM | > 100 µM | > 100 µM | > 100 µM | > 100 µM | > 100 | > 100 µM | > 100 µM | > 100 µM | > 100 µM |  | > 100 µM |  | > 100 µM | > 100 µM
CN(C(=O)c1ccc(Cl)cc1)C(=S)N1CCN(c2ccccn2)CC1 |  | > 100 µM | > 100 µM | > 100 µM | > 100 µM |  | > 100 µM | > 100 µM | > 100 µM | > 100 µM |  | > 100 µM |  | > 100 µM | > 100 µM
O=C(Cc1ccccc1)NN1C(=O)C(Cl)C1c1ccc([N+](=O)[O-])cc1 (stereo not drawn) | > 100 µM | > 100 µM | > 100 µM | > 100 µM | > 100 µM |  | > 100 µM | > 100 µM | > 100 µM | > 100 µM |  | > 100 µM |  | > 100 µM | > 100 µM
O=C1NCCCC12CCCNC2=O | > 100 µM | > 100 µM | > 100 µM | > 100 µM | > 100 µM |  | > 100 µM | > 100 µM | > 100 µM | > 100 µM |  |  |  |  | 
CCn1c2ccccc2c2ccc3c(c21)C(=O)c1ccccc1C3=O | > 100 µM | > 100 µM | > 100 µM | > 100 µM | > 100 µM |  | 60.6 µM | > 100 µM | > 100 µM | > 100 µM |  | > 100 µM |  | > 100 µM | > 100 µM
COC(=O)C1=C(C(=O)OC)C2C(C)=CC(C)=CN2C(C#N)=C(SC)S1 (stereo not drawn) |  | 86.7 µM | 54.7 µM | 44 µM | > 100 µM |  | 33.8 µM | 64.3 µM | 52.6 µM | 37.6 µM |  | 49.2 µM |  | > 100 µM | 
